In PubChem BioAssay AID977622 (Broad Institute, 2014):
Results filed as inconclusive are left out. The source made the active and inactive calls.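 The calls were made as follows: active = Green signal of the normal strain falls at least twice as much as red signal of the resistant mutant, with overall culture growth loss under a set limit; inconclusive = no clear call, values can overlap the other calls; inactive = the rest.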

Tested on: E. coli WT ribosome GFP fluorescence, mixed culture, 24 h
Assay: wild-type E. coli growth inhibition versus h38 humanized strain – h38 mutant RFP, wild-type GFP, cherry-pick, dose response (AID 977622)
[1] = E. coli mixed culture, 24 h, measured here: total growth OD600

SMILES | AC50 [1] | AC50
Cc1ccc(S(=O)(=O)Nc2ccccc2CNc2cccc(C)n2)cc1 | > 100 µM | –
COC(=O)c1c(NC(=O)c2ccccc2C(=O)O)sc2c1CCC2 | – | > 100 µM (inactive)
O=[N+]([O-])c1ccc(N2CCOCC2)c2c1no[n+]2[O-] | > 100 µM | > 100 µM (inactive)
O=C(C[C@H]1CC[C@@H]2[C@H](COC[C@@H](O)CN2C(=O)Nc2cc(Cl)cc(Cl)c2)O1)N1CCOCC1 | – | > 100 µM (inactive)
CN(Cc1ccc([N+](=O)[O-])cc1)c1ccccc1 | > 100 µM | –
CCN(C(=O)c1ccnc(C(C)(C)C)c1)c1ccccc1 | – | > 100 µM (inactive)
CCNc1nc(N)c(C(=O)C23CC4CC(CC(C4)C2)C3)s1 | > 100 µM | –
O=C(CSc1nnc(COc2cccc3cccnc23)o1)c1ccc(F)cc1 | > 100 µM | –
O=C(CC(=O)c1cccs1)c1ccncc1 | > 100 µM | > 100 µM (inactive)
CC1CN(CC(=O)Nc2nc3ccccc3s2)CC(C)O1 (stereo not drawn) | – | > 100 µM (inactive)
Nc1[nH]c(C(=O)c2ccccc2)c(-c2ccc3c(c2)OCO3)c1C(=O)NCCc1c[nH]c2ccccc12 | > 100 µM | –
CN1C(=O)c2cc(NC(=O)c3cccc(F)c3)ccc2OC[C@H]2O[C@@H](CC(=O)N3CCc4ccccc4C3)CC[C@@H]21 | – | > 100 µM (inactive)
CC(=O)Nc1ccc2nc3ccccc3nc2c1 | > 100 µM | > 100 µM (inactive)
COc1ccc(-c2csc(NC(=O)c3ccoc3C)n2)cc1 | > 100 µM | > 100 µM (inactive)
CN(C)C(CNS(=O)(=O)c1cc([N+](=O)[O-])ccc1Cl)c1ccco1 (stereo not drawn) | > 100 µM | > 100 µM (inactive)
Fc1ccc(Br)cc1SCCc1ccncc1 | > 100 µM | –
CCOC(=O)C(CC)Sc1cc(C)nc2ccc(OC)cc12 (stereo not drawn) | > 100 µM | –
CSc1ccc(CN(C)C(=O)C(c2ccccc2)c2ccccc2)cc1 | > 100 µM | –
Nc1ccccc1Nc1ccc([N+](=O)[O-])cc1[N+](=O)[O-] | – | > 100 µM (inactive)
Cc1cc(NC(=O)c2cccc(Oc3ccccc3)c2)n[nH]1 | 40.6 µM | > 100 µM (inactive)
O=C(NCCc1ccc(O)cc1)c1[nH]c(C(F)(F)F)nc1-c1ccccc1 | > 100 µM | > 100 µM (inactive)
Cc1ccc(Nc2cc(C(=O)NCCCN3CCOCC3)c3ccccc3n2)cc1C | > 100 µM | > 100 µM (inactive)

SMILES | AC50 [1] | AC50
Nc1ccccc1C#CC(=O)c1ccccc1 | – | > 100 µM (inactive)
FC(F)(F)c1ccc(Cl)c(-n2c(Cc3cccs3)n[nH]c2=S)c1 | – | > 100 µM (inactive)
Cc1cc(C)cc(NC(=O)c2cccc(NC(=O)C3C4CC5OC(=O)C3C5C4)c2)c1 (stereo not drawn) | – | > 100 µM (inactive)
Cc1cc(C(=O)Nc2cccc3c2O[C@H](CN(C)S(=O)(=O)c2ccc(Cl)cc2)[C@H](C)CN([C@H](C)CO)C3=O)n(C)n1 | 27.8 µM | > 100 µM (inactive)
O=C(Cn1c(CO)nc2ccccc21)NCCc1ccc(F)cc1 | – | > 100 µM (inactive)
CCN(c1ccccc1)S(=O)(=O)c1ccc(Cl)c(NC(=O)CSc2n[nH]c(N)n2)c1 | > 100 µM | > 100 µM (inactive)
Cc1cccc(Oc2ccc(NC(=O)c3ccccc3C(=O)O)cc2)c1 | > 100 µM | –
O=C(Cc1cccc(NC(=O)C2CCCN(C(=O)CCc3ccccc3)C2)c1)Nc1cccc(C(=O)N2CCCC2)c1 (stereo not drawn) | – | > 100 µM (inactive)
CC(C)Oc1ccc(C(CC(=O)O)NC(=O)C(Sc2ccccc2)c2ccccc2)cc1 (stereo not drawn) | > 100 µM | > 100 µM (inactive)
CCCn1c(=O)c2ccccc2n2c(SCCOc3ccc(OC)cc3)nnc12 | – | > 100 µM (inactive)
Cc1cc(C(=O)OCC(=O)Nc2cccc(S(N)(=O)=O)c2)c2ccccc2n1 | > 100 µM | > 100 µM (inactive)
CCC(C)c1ccccc1NC(=O)c1cccc(-n2cnnn2)c1 (stereo not drawn) | > 100 µM | –
Cc1ccc(C)c(N(CC(=O)NC2CCCC2)C(=O)c2oc(C(C)(C)C)cc2C)c1 | > 100 µM | –
Cc1ccc(S(=O)(=O)NCc2c(-c3ccccc3)noc2C)cc1 | – | > 100 µM (inactive)
Cc1cc(C)c(OCCNC(=O)c2ccccc2Sc2ccccc2C#N)c(C)c1 | – | > 100 µM (inactive)
CC(=O)Nc1cccc(-c2ccnc3c2CC(C(=O)Nc2ccc4c(c2)OCO4)O3)c1 (stereo not drawn) | – | > 100 µM (inactive)
COc1cc2c(c(OC)c1OC)C(c1ccc3c(c1)OCO3)CC(=O)O2 (stereo not drawn) | > 100 µM | –
COc1ccc(CNC(=O)c2sc3nc4c(c(C(F)(F)F)c3c2N)CCC4)cc1OC | > 100 µM | –
O=C1N[C@@H](Cc2ccccc2)COC(=O)[C@H](Cc2ccc(F)cc2)C/C=C\C[C@H]1CC(=O)N(CCO)Cc1ccccc1 | – | > 100 µM (inactive)
O=C(Nc1cccc(Cl)c1)N1C[C@@H]2[C@H](c3ccccc31)[C@H](CO)N2Cc1ccncc1 | > 100 µM | –
CC(C)(CC(=O)O)CC(=O)NCc1c(Cl)cccc1Sc1ccc(Cl)cc1 | > 100 µM | –
c1cc2cc(-c3c(-c4ccc5c(c4)OCO5)noc3-c3ccsc3)ccc2[nH]1 | – | > 100 µM (inactive)

SMILES | AC50 [1] | AC50
Cc1nnc2sc(SCC(=O)Nc3ccc(Br)cc3)nn2c1=O | > 100 µM | > 100 µM (inactive)
Cc1cc(-c2ccc(C)c(S(=O)(=O)NC(C)Cc3ccco3)c2)on1 (stereo not drawn) | 46.2 µM | > 100 µM (inactive)
O=C(Cc1cccc(NC(=O)C2CCN(C(=O)C3CCCCC3)CC2)c1)Nc1cccc(C(=O)N2CCCC2)c1 | > 100 µM | > 100 µM (inactive)
O=C(NCc1cccnc1)C1CCN(S(=O)(=O)c2cc([N+](=O)[O-])ccc2Cl)CC1 | – | > 100 µM (inactive)
CSc1ccccc1NC(=O)c1ccccc1N(Cc1ccccc1)S(C)(=O)=O | – | > 100 µM (inactive)
Cn1cc(CN2CCCC(C(=O)Nc3cccc(-c4cc5ccccc5[nH]4)c3)C2)cn1 (stereo not drawn) | > 100 µM | –
O=C(NCCc1ccccc1)c1cccc(NC(=O)c2ccccc2)c1 | – | > 100 µM (inactive)
CCOc1ccc(OCCn2c(=S)[nH]c3c(N)ncnc32)cc1 | 39 µM | > 100 µM (inactive)
CSc1c(-c2ccccn2)c(N)nn1C(=O)C1CC1 | – | > 100 µM (inactive)
Cc1cccc(N2CCN(Cc3nc(-c4ccc(F)cc4F)oc3C)CC2)n1 | > 100 µM | –
CCCN1C(=O)C(O)(c2c(C)[nH]c3ccccc23)c2ccccc21 (stereo not drawn) | > 100 µM | –
O=C(c1cc2cc(F)ccc2[nH]1)N1CCN(Cc2ccc3c(c2)OCO3)CC1 | 20.8 µM | > 100 µM (inactive)
Cc1ccsc1C(=O)N1CCCC(C(=O)c2cc(F)ccc2F)C1 (stereo not drawn) | > 100 µM | > 100 µM (inactive)
Nc1[nH]c(C(=O)c2ccccc2)c(-c2ccc(Cl)cc2)c1C(=O)NCCc1c[nH]c2ccccc12 | > 100 µM | –
CCCN(CC(=O)Nc1ccccc1C)C(=O)c1cccc(S(=O)(=O)N2CCc3ccccc3C2)c1 | – | > 100 µM (inactive)
C[C@@H]1CN([C@@H](C)CO)C(=O)c2cc(NC(=O)C3CC3)ccc2O[C@H]1CN(C)C(=O)Nc1ccc(C(F)(F)F)cc1 | – | > 100 µM (inactive)
O=c1[nH]c(C2CCN(S(=O)(=O)c3ccc4c(c3)OCCO4)CC2)nc2c1nnn2Cc1ccccc1F | – | > 100 µM (inactive)
C[C@@H]1CN([C@H](C)CO)C(=O)CCCn2nncc2CO[C@@H]1CN(C)C(=O)Nc1ccc(C(F)(F)F)cc1 | – | > 100 µM (inactive)
NC(=O)c1ccsc1NC(=O)COC(=O)Cc1ccc(F)cc1 | > 100 µM | –
CCCCc1ccc(S(=O)(=O)Nc2ccc(C)c(NS(C)(=O)=O)c2)cc1 | 51.4 µM | > 100 µM (inactive)
COc1ccc(OC2C(=O)N(Cc3ccc4c(c3)OCO4)C2c2cccs2)cc1 (stereo not drawn) | – | > 100 µM (inactive)
S=C1SCN(Cc2cccnc2)CN1Cc1ccccc1 | – | > 100 µM (inactive)

SMILES | AC50 [1] | AC50
O=C(CN(CCO)c1ccccc1)Nc1cccc(S(=O)(=O)N2CCCC2)c1 | – | > 100 µM (inactive)
COc1ccc(C#Cc2ccc([C@@H]3[C@@H](CO)N4CCCCN(C(=O)Nc5ccc(F)cc5)C[C@H]34)cc2)cc1 | 50.6 µM | –
Cc1ccccc1-n1ncc2c1CC(C)(C)CC2NC(=O)CCN1Cc2ccccc2C1=O (stereo not drawn) | > 100 µM | > 100 µM (inactive)
Cc1noc(NS(=O)(=O)c2ccc(NC(=O)c3cc(-c4ccccc4Cl)nc4ccccc34)cc2)c1C | – | > 100 µM (inactive)
CCCC[n+]1ccn(-c2nc3ccccc3nc2[N-]S(=O)(=O)c2cccs2)c1 | > 100 µM | > 100 µM (inactive)
CC(CCC(=O)O)C1CC[C@@]2(C)C3C(=O)CC4C(C)(C)C(O)CC[C@]4(C)C3C(=O)C[C@]12C (stereo partly drawn) | > 100 µM | > 100 µM (inactive)
Cc1ccc(-n2cc(CNCCN3CCOC3=O)c(-c3ccc(F)cc3)n2)cc1 | > 100 µM | –
COc1ccc(C#Cc2ccc([C@H]3[C@@H](CO)N4CCCCN(C(=O)Nc5cccc(F)c5)C[C@H]34)cc2)cc1 | > 100 µM | –
Cc1ccc(-c2cc(-c3ccc(C)cc3)[n+](-c3ccc(C(=O)[O-])cc3)c(-c3ccc(C)cc3)c2)cc1 | – | > 100 µM (inactive)
COc1ccc(CN2CCC3CC2c2cc(Cl)ccc23)cc1 (stereo not drawn) | > 100 µM | –
C[C@]12C(=O)N(c3ccc(F)cc3)C(=O)N1[C@@H]1c3ccccc3OC[C@@H]1[C@H]2c1ccccc1 | > 100 µM | –
O=C(CSCc1c(Cl)cccc1Cl)Nc1cccnc1 | > 100 µM | > 100 µM (inactive)
O=C(COC(=O)C1CC2C=CC1C2)Nc1ccc([N+](=O)[O-])cc1 (stereo not drawn) | > 100 µM | –
CCOc1ccc(N(CC(=O)NC(C(C)C)C(C)C)S(=O)(=O)c2ccc(OC)c(OC)c2)cc1 | 50.9 µM | > 100 µM (inactive)
COc1cccc(NC(=O)N(C)C[C@H]2Oc3ncc(C#Cc4cccnc4)cc3C(=O)N([C@H](C)CO)C[C@H]2C)c1 | > 100 µM | –
O=S(=O)(NCc1ccc2c(c1)OCO2)c1ccc2c(c1)oc1ccccc12 | 40.8 µM | > 100 µM (inactive)
COc1ccc(NC(=O)CN(c2ccccc2OC)S(=O)(=O)c2cccs2)cc1Cl | > 100 µM | –
CC(Nc1ncnc2ccccc12)c1ccccc1 (stereo not drawn) | > 100 µM | > 100 µM (inactive)
O=C(O)c1ccc(Oc2ccc([N+](=O)[O-])cc2)c([N+](=O)[O-])c1 | – | > 100 µM (inactive)
O=C(NCCc1ccc(Cl)cc1)c1ccc2nc[nH]c2c1 | – | > 100 µM (inactive)
O=C(Nc1cccc(O)c1)c1cc(-c2ccccc2Cl)on1 | – | > 100 µM (inactive)
